Laboratory results as given in US20080031957A1, “Pulmonary delivery of 1alpha,25-dihydroxyvitamin D3 and co-administration of parathyroid hormone or calcitonin” (priority 2006, published 2008).

Key:
[1] = test system: serum calcium levels; test: Effect of aerosolized 1α,25-dihydroxyvitamin D3 on serum calcium levels; type: in vivo, Brown Norway rats; conditions: Formulation A, intratracheal 200 μL doses on Day 0 and Day 2, blood 24 h after last dose
From the text: Sprague Dawley and Brown Norway male rats aged 6-7 weeks were obtained from Harlan Sprague-Dawley (Madison, Wis.) and housed in shoebox cages. Animals were provided a purified rodent diet prepared in-house containing 0.47% calcium and 0.3% phosphorus, and water ad libitum. The diet was supplemented with 1.6 IU vitamin D3/g diet. […] Formulation A was an aqueous solution containing 30% propylene glycol and 5% ethanol at pH 7.0. Formulation B was also an aqueous solution further containing 0.4% TWEEN polysorbate 20 [1 mL of solution contains: 4 mg Tween Polysorbate 20, 1.5 mg sodium chloride, 10 mg sodium ascorbate, 7.6 mg sodium phosphate (dibasic), 1.8 mg sodium phosphate (monodibasic) and 1.1 mg disodium […]], pH 7.0. Effectiveness of Aerosol Delivery of Vitamin D to Pulmonary Tree. 1α,25-dihydroxyvitamin D3 effect on serum calcium levels in Brown Norway rats was determined. Delivery of 1α,25-dihydroxyvitamin D3 (i.e., in vivo activity) was measured to determine the effect of aerosolized 1α,25-dihydroxyvitamin D3 treatment on serum calcium levels. Formulation A containing 1α,25-dihydroxyvitamin D3 was intra-tracheally delivered in 200 μL doses on Day 0 (Day 0 was the first day of treatment) and Day 2. […] Calcium levels were determined by atomic absorption spectroscopy of the serum diluted 0.1% lanthum chloride using a Perkin Elmer Model 3110.

[2] = Tissue distribution of 1α,25-dihydroxyvitamin D3 after intratracheal (pulmonary) delivery; type: in vivo, Sprague Dawley rats
From the text: Sprague Dawley and Brown Norway male rats aged 6-7 weeks were obtained from Harlan Sprague-Dawley (Madison, Wis.) and housed in shoebox cages. Animals were provided a purified rodent diet prepared in-house containing 0.47% calcium and 0.3% phosphorus, and water ad libitum. The diet was supplemented with 1.6 IU vitamin D3/g diet. […] Formulation A was an aqueous solution containing 30% propylene glycol and 5% ethanol at pH 7.0. Formulation B was also an aqueous solution further containing 0.4% TWEEN polysorbate 20 [1 mL of solution contains: 4 mg Tween Polysorbate 20, 1.5 mg sodium chloride, 10 mg sodium ascorbate, 7.6 mg sodium phosphate (dibasic), 1.8 mg sodium phosphate (monodibasic) and 1.1 mg disodium […]], pH 7.0. Intratracheal delivery of 1α,25-dihydroxyvitamin D3. 5 μCi of 1α,25-dihydroxyvitamin D3 was delivered intratracheally to anesthetized (isoflurane) Sprague Dawley rats by using the MicroSprayerTM Model 1C following the manufacturer's protocol (PennCentury, Philadelphia, Pa). The device included a stainless steel tube measuring 0.64 mm in diameter attached to a high-pressure syringe (Model FMJ-250, PennCentury). An atomizer at the very tip of the tube generated the aerosol plume. The MicroSprayerTM was inserted deep into the trachea allowing delivery of aerosolized compounds into the lungs. 1α,25-dihydroxyvitamin D3 was administered in either 100 μL (Formulation A and Formulation B) or 200 μL (Formulation A) dose volumes. As a quench control, a group of animals were dosed with either Formulation A or Formulation B. Tissue analysis. Using a duration of 4 hours and a duration of 10 minutes after administering the dose, the animals were anesthetized with isoflurane and blood was collected from the heart. The trachea, lungs and stomach were removed, dehydrated in alcohol and pulverized. Samples weighing 20-100 mg were placed in 1 mL Solvable (Packard BioScience B. V., The Netherlands) and incubated at 60° C. overnight. Next, 10 mL of Optima Gold (Perkin Elmer, Boston, Mass.) was added to the samples, and radioactivity was measured using a liquid scintillation analyzer (TRI-CARB 2100 TR, Packard). To determine the presence of 1α,25-dihydroxyvitamin D3 in the blood, 200-300 μL of serum in 10 mL Optima Gold was used for scintillation counting.

[3] = Formulation A, 100 μL dose, after 10 minutes
[4] = Formulation B, 100 μL dose, after 10 minutes

## C=C1/C(=C\C=C2/CCC[C@]3(C)[C@@H]([C@H](C)CCCC(C)(C)O)CC[C@@H]23)C[C@@H](O)C[C@@H]1O [1α,25-dihydroxyvitamin D3]
[1]; 1 μg/kgBW
  increase of serum calcium levels: 2.8 mg/dL
[1]; 10 μg/kgBW
  increase of serum calcium levels: 4 mg/dL
[2]; [3]
  detected 1α,25-dihydroxyvitamin D3 found in the serum: 53%
  detected 1α,25-dihydroxyvitamin D3 found in the stomach: ~1%
  detected 1α,25-dihydroxyvitamin D3 found in the trachea and lungs: 46%
[2]; Formulation A, after 4 hours
  detected 1α,25-dihydroxyvitamin D3 found in the serum: 60%
  detected 1α,25-dihydroxyvitamin D3 found in the stomach: 36%
  detected 1α,25-dihydroxyvitamin D3 found in the trachea and lungs: Less than 5%
[2]; [4]
  detected 1α,25-dihydroxyvitamin D3 found in the serum: 51%
  detected 1α,25-dihydroxyvitamin D3 found in the stomach: less than 4%
  detected 1α,25-dihydroxyvitamin D3 found in the trachea and lungs: 33%
[2]; Formulation B, after 4 hours
  1α,25-dihydroxyvitamin D3 detected in serum (% of total): 56%
  1α,25-dihydroxyvitamin D3 detected in stomach (% of total): 35%
